According to patent US20140220069A1, “ACTIVE INGREDIENT DERIVED FROM TORULASPORA DELBRUECKII AND COSMETIC USE FOR IMPROVING AND/OR REPAIRING THE BARRIER FUNCTION OF THE SKIN” (SOCIETE INDUSTRIELLE LIMOUSINE D'APPLICATION BIOLOGIQUE, priority 2011, published 2014):

How the values were obtained:
loricrin [1] = assay: Synthesis of loricrin by Western Blot on normal human keratinocytes in a single layer; type: cell-based; settings: for effect on the synthesis of human keratinocyte loricrin in a single layer: human keratinocytes in a single layer
Procedure: The test is done on normal human keratinocytes, according to the operating procedure described in Item A.II of the part on the evaluation of the cosmetic effectiveness.
It was accomplished by Western Blot on normal human keratinocytes that are isolated from foreskins, according to the operating procedure described below.
On D0, the human keratinocytes are inoculated and then incubated at 37° C.
The cells are then incubated at 37° C.
On D7, the cellular extracts are recovered, and the Western Blot metering is carried out.

E-cadherin = assay: Synthesis of E-cadherin on reconstructed epidermis (immunohistological marking, image analysis); type: cell-based, human
Procedure: (§1) The procedure used to validate the agonist and the antagonist of the nAChRs is illustrated below for the synthesis of loricrin on reconstructed epidermis. It also applies to the synthesis of E-cadherin on reconstructed epidermis. The inserts comprising the epidermis under construction are placed in a culture medium containing: • 1,000 μM of mecamylamine (reversible antagonist of the nACHRs) or • 500 μM of nicotine (reversible agonist of the nACHRs).
(§2) On D0, the human keratinocytes are cultivated in a culture medium and then inoculated on an insert.
(§3) On D13 and/or D18, the inserts are recovered, fixed, dehydrated, and incorporated into paraffin.
(§4) Next, cuts are made, and then an immunohistological marking of the loricrin or the E-cadherin is done.
(§5) The display is then produced on a microscope coupled to an image analysis system. The intensity of the fluorescence (green color) is proportional to the synthesis of loricrin or cadherin.

loricrin [2] = assay: Synthesis of loricrin on reconstructed epidermis (immunohistological marking, image analysis); type: cell-based, human; settings: for Synthesis of Loricrin: D18, untreated control 100%; for synthesis of loricrin relative to the untreated control: mecamylamine 1,000 μM, nicotine 500 μM
Procedure: as §1
On D18, the inserts are recovered, fixed, dehydrated, and incorporated into paraffin.
Cuts are made, and then an immunohistological marking of the loricrin is done.
Visualization is then done on a microscope coupled to an image analysis system. The intensity of the fluorescence (green color) is proportional to the synthesis of loricrin.
as §2, §3, §4, §5

SMILES | Change in loricrin synthesis versus control (loricrin [1]; 350 μM, normal human keratinocytes, Western Blot on D7) [%] | effect on the synthesis of human keratinocyte loricrin in a single layer (loricrin [1]) | effect on the synthesis of E-cadherin on reconstructed epidermis (E-cadherin) | Synthesis of Loricrin (loricrin [2]; 1,000 μM) [%] | synthesis of loricrin relative to the untreated control (loricrin [2]) | Ratio of Loricrin/Control (%) (loricrin [1]) | Synthesis of Loricrin (loricrin [2]; 500 μM) [%]
CNC1(C)C2CCC(C2)C1(C)C (stereo not shown) [Mecamylamine, mecamylamine] | −57 | inhibiting effect | inhibiting effect | 53 | reduced |  | 
CN1CCCC1c1cccnc1 (stereo not shown) [Nicotine, nicotine] |  | stimulating effect | stimulating effect |  | increased | +51% | 113
